Source: patent US10689354B2, “Aminoazole derivative” (Teijin Pharma Limited, priority 2015, dated 2020)

Experiments:
[1] = molecular target: T1, androgen receptor (AR-LBD) (Rattus norvegicus, UniProt P15207); assay: Evaluation of androgen receptor affinity (PolarScreen Androgen Receptor Competitor Assay Kit, Red; fluorescence polarization); details: 22° C. for 5 hours, relative to binding rate of 1 μM DHT, read-out: AR affinity (pEC50) (converted)
T1 construct: 5 μL of 2×AR-LBD/Fluoromone AL Red Complex contained in the kit; purchased Invitrogen
T1 sequence (P15207 651-882 limits assumed): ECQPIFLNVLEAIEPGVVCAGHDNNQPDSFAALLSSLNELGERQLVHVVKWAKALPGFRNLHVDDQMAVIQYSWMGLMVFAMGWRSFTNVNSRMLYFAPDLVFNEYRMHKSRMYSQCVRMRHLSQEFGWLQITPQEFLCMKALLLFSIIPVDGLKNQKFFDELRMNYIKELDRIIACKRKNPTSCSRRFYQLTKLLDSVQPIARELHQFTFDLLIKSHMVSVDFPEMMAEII
Outline: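 pEC50 values reflect tracer displacement from AR-LBD (Fluoromone AL Red complex) measured by fluorescence polarization after 5 h at 22° C, normalized to 1 μM DHT and fitted with a 4-parameter model.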

[2] = molecular target: T2, human androgen receptor (Homo sapiens, UniProt P10275); assay: Reporter assay of an androgen receptor responsive sequence (luciferase, transiently transfected HEK293 cells); type: cell-based; details: 24 hours incubation, relative to activity of 100 nM DHT, read-out: AR transcriptive activity (pEC50) (converted)
T2 construct: expressed in transfected cells; host or cells: HEK293
T2 sequence (P10275 1-920): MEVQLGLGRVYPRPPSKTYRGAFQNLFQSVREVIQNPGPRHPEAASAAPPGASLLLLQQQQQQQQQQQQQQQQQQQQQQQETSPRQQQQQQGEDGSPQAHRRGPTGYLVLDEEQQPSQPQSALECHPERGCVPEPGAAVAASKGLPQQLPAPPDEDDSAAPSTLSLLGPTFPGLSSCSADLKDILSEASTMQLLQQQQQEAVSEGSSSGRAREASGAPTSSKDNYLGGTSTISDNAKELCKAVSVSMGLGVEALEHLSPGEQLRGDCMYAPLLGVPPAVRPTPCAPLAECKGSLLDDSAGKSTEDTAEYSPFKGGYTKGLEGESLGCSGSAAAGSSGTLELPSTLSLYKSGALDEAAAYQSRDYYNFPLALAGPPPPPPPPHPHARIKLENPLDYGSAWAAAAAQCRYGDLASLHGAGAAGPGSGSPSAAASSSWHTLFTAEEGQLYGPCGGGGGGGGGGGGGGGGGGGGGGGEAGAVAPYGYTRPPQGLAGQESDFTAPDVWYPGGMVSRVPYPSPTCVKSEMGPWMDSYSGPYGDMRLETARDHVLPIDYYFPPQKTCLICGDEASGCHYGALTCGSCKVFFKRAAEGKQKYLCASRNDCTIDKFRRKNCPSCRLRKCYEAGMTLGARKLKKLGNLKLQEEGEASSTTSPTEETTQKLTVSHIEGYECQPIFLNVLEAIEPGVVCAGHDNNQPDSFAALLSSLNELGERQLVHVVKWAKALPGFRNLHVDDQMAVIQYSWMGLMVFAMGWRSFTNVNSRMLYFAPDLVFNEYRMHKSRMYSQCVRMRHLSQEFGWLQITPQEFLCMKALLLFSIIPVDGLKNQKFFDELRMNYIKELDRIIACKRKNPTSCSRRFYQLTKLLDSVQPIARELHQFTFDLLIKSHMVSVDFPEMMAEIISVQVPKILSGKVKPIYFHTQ
Outline: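 HEK293 cells transiently transfected for 3 h with ARE-firefly luciferase, full-length human AR and TK-Renilla plasmids, then exposed to compound for 24 h at 37 °C in 5% charcoal-treated FBS/DMEM. Dual-Glo luminescence read; pEC50 from 4-parameter fit relative to 100 nM DHT.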

## Cc1sc(N(Cc2cccc(N(C)C)c2)c2ccc(C#N)cc2)nc1C(=O)NS(C)(=O)=O [Example 215, 2-[4-cyano-N-[[3-(dimethylamino)phenyl]methyl]anilino]-5-methyl-N-methylsulfonyl-thiazole-4-carboxamide]
[1]
  EC50: 50.1 nM
[2]
  EC50: 200 nM

## Cc1sc(N(Cc2cccc(N3CCCC3)c2)c2ccc(C#N)cc2)nc1C(=O)NS(C)(=O)=O [Example 216, 2-[4-cyano-N-[(3-pyrrolidin-1-ylphenyl)methyl]anilino]-5-methyl-N-methylsulfonyl-thiazole-4-carboxamide]
[1]
  EC50: 63.1 nM
[2]
  EC50: 1260 nM

## Cc1sc(N(Cc2cccc(N3CCCCC3)c2)c2ccc(C#N)cc2)nc1C(=O)NS(C)(=O)=O [Example 217, 2-[4-cyano-N-[[3-(1-piperidyl)phenyl]methyl]anilino]-5-methyl-N-methylsulfonyl-thiazole-4-carboxamide]
[1]
  EC50: 50.1 nM
[2]
  EC50: 3160 nM

## Cc1sc(N(Cc2cccc(-n3ccnc3)c2)c2ccc(C#N)cc2)nc1C(=O)NS(C)(=O)=O [Example 218, 2-[4-cyano-N-[(3-imidazol-1-ylphenyl)methyl]anilino]-5-methyl-N-methylsulfonyl-thiazole-4-carboxamide]
[1]
  EC50: 251 nM
[2]
  EC50: > 10000 nM

## Cc1sc(N(Cc2cccc(-n3cccn3)c2)c2ccc(C#N)cc2)nc1C(=O)NS(C)(=O)=O [Example 219, 2-[4-cyano-N-[(3-pyrazol-1-ylphenyl)methyl]anilino]-5-methyl-N-methylsulfonyl-thiazole-4-carboxamide]
[1]
  EC50: 63.1 nM
[2]
  EC50: 1580 nM

## Cc1oc(N(CCc2ccc(Cl)cc2)Cc2ccccc2)nc1C(=O)NS(C)(=O)=O [Example 220, 2-[benzyl-[2-(4-chlorophenyl)ethyl]amino]-5-methyl-N-methylsulfonyl-oxazole-4-carboxamide]
[1]
  EC50: 39.8 nM
[2]
  EC50: 316 nM

## CS(=O)(=O)NC(=O)c1nc(N(Cc2ccc3occc3c2)c2ccc(C#N)cc2)sc1Br [Example 221, 2-[N-(benzofuran-5-ylmethyl)-4-cyano-anilino]-5-bromo-N-methylsulfonyl-thiazole-4-carboxamide]
[1]
  EC50: 39.8 nM
[2]
  EC50: 50.1 nM

## Cc1sc(N(Cc2ccccc2)c2ccc(C#N)c(F)c2)nc1C(=O)NS(C)(=O)=O [Example 222, 2-(N-benzyl-4-cyano-3-fluoro-anilino)-5-methyl-N-methylsulfonyl-thiazole-4-carboxamide]
[1]
  EC50: 200 nM
[2]
  EC50: 251 nM

## Cc1sc(N(Cc2ccccc2)c2ccc(C(F)(F)F)nc2)nc1C(=O)NS(C)(=O)=O [Example 223, 2-[benzyl-[6-(trifluoromethyl)-3-pyridyl]amino]-5-methyl-N-methylsulfonyl-thiazole-4-carboxamide]
[1]
  EC50: 398 nM
[2]
  EC50: 631 nM

## CS(=O)(=O)NC(=O)c1nc(N(Cc2ccccc2)c2ccc(C#N)cc2)sc1C(F)(F)F [Example 230, 2-(N-benzyl-4-cyano-anilino)-N-methylsulfonyl-5-(trifluoromethyl)thiazole-4-carboxamide]
[1]
  EC50: 126 nM
[2]
  EC50: 1260 nM

## Cc1sc(N(Cc2ccccc2)c2ccc3ccccc3c2)nc1C(=O)NS(C)(=O)=O [Example 232, 2-[benzyl(2-naphthyl)amino]-5-methyl-N-methylsulfonyl-thiazole-4-carboxamide]
[1]
  EC50: 200 nM
[2]
  EC50: > 10000 nM

## CS(=O)(=O)NC(=O)c1nc(N(Cc2ccccc2Cl)c2ccc(C#N)cc2)sc1Br [Example 240, 5-bromo-2-[N-[(2-chlorophenyl)methyl]-4-cyano-anilino]-N-methylsulfonyl-thiazole-4-carboxamide]
[1]
  EC50: 79.4 nM
[2]
  EC50: 200 nM

## Cc1sc(N(Cc2ccccc2)c2ccc(S(F)(F)(F)(F)F)cc2)nc1C(=O)NS(C)(=O)=O [Example 241, 2-[N-benzyl-4-(pentafluorosulfanyl)anilino]-5-methyl-N-methylsulfonyl-thiazole-4-carboxamide]
[1]
  EC50: 316 nM
[2]
  EC50: 1000 nM

## CS(=O)(=O)NC(=O)c1nc(N(Cc2ccccc2F)c2ccc(C#N)cc2)sc1Br [Example 242, 5-bromo-2-[4-cyano-N-[(2-fluorophenyl)methyl]anilino]-N-methylsulfonyl-thiazole-4-carboxamide]
[1]
  EC50: 63.1 nM
[2]
  EC50: 100 nM

## CS(=O)(=O)NC(=O)c1nc(N(Cc2cccc(F)c2)c2ccc(C#N)cc2)sc1Br [Example 243, 5-bromo-2-[4-cyano-N-[(3-fluorophenyl)methyl]anilino]-N-methylsulfonyl-thiazole-4-carboxamide]
[1]
  EC50: 50.1 nM
[2]
  EC50: 63.1 nM

## CS(=O)(=O)NC(=O)c1nc(N(Cc2ccc(F)cc2)c2ccc(C#N)cc2)sc1Br [Example 244, 5-bromo-2-[4-cyano-N-[(4-fluorophenyl)methyl]anilino]-N-methylsulfonyl-thiazole-4-carboxamide]
[1]
  EC50: 63.1 nM
[2]
  EC50: 39.8 nM

## CS(=O)(=O)NC(=O)c1nc(N(Cc2cccc(Cl)c2)c2ccc(C#N)cc2)sc1Br [Example 247, 5-bromo-2-[N-[(3-chlorophenyl)methyl]-4-cyano-anilino]-N-methylsulfonyl-thiazole-4-carboxamide]
[1]
  EC50: 31.6 nM
[2]
  EC50: 31.6 nM

## CS(=O)(=O)NC(=O)c1nc(N(Cc2ccc(Cl)cc2)c2ccc(C#N)cc2)sc1Br [Example 248, 5-bromo-2-[N-[(4-chlorophenyl)methyl]-4-cyano-anilino]-N-methylsulfonyl-thiazole-4-carboxamide]
[1]
  EC50: 31.6 nM
[2]
  EC50: 25.1 nM

## CS(=O)(=O)NC(=O)c1nc(N(Cc2ccc(C(F)(F)F)cc2)c2ccc(C#N)cc2)sc1Br [Example 251, 5-bromo-2-[4-cyano-N-[[4-(trifluoromethyl)phenyl]methyl]anilino]-N-methylsulfonyl-thiazole-4-carboxamide]
[1]
  EC50: 39.8 nM
[2]
  EC50: 25.1 nM

## CS(=O)(=O)NC(=O)c1nc(N(Cc2cccc(OC(F)(F)F)c2)c2ccc(C#N)cc2)sc1Br [Example 252, 5-bromo-2-[4-cyano-N-[[3-(trifluoromethoxy)phenyl]methyl]anilino]-N-methylsulfonyl-thiazole-4-carboxamide]
[1]
  EC50: 31.6 nM
[2]
  EC50: 79.4 nM

## CS(=O)(=O)NC(=O)c1nc(N(Cc2ccc(OC(F)(F)F)cc2)c2ccc(C#N)cc2)sc1Br [Example 253, 5-bromo-2-[4-cyano-N-[[4-(trifluoromethoxy)phenyl]methyl]anilino]-N-methylsulfonyl-thiazole-4-carboxamide]
[1]
  EC50: 31.6 nM
[2]
  EC50: 79.4 nM

## CS(=O)(=O)NC(=O)c1nc(N(Cc2ccccc2OC(F)F)c2ccc(C#N)cc2)sc1Br [Example 254, 5-bromo-2-[4-cyano-N-[[2-(difluoromethoxy)phenyl]methyl]anilino]-N-methylsulfonyl-thiazole-4-carboxamide]
[1]
  EC50: 39.8 nM
[2]
  EC50: 158 nM

## CS(=O)(=O)NC(=O)c1nc(N(Cc2cccc(OC(F)F)c2)c2ccc(C#N)cc2)sc1Br [Example 255, 5-bromo-2-[4-cyano-N-[[3-(difluoromethoxy)phenyl]methyl]anilino]-N-methylsulfonyl-thiazole-4-carboxamide]
[1]
  EC50: 50.1 nM
[2]
  EC50: 79.4 nM

## CS(=O)(=O)NC(=O)c1nc(N(Cc2ccc(OC(F)F)cc2)c2ccc(C#N)cc2)sc1Br [Example 256, 5-bromo-2-[4-cyano-N-[[4-(difluoromethoxy)phenyl]methyl]anilino]-N-methylsulfonyl-thiazole-4-carboxamide]
[1]
  EC50: 50.1 nM
[2]
  EC50: 50.1 nM

## CS(=O)(=O)NC(=O)c1nc(N(Cc2ccccc2F)c2ccc(C#N)cc2)sc1Cl [Example 257, 5-chloro-2-[4-cyano-N-[(2-fluorophenyl)methyl]anilino]-N-methylsulfonyl-thiazole-4-carboxamide]
[1]
  EC50: 100 nM
[2]
  EC50: 79.4 nM
